Target: T1, CDK14 (PFTK1)/cyclin Y (Homo sapiens, UniProt O94921)
T1 construct: purchased Thermo Fisher Scientific (Life Technologies) SelectScreen
Assay: SelectScreen LanthaScreen
Format: binding
Conditions: 1 µM
Summary of the method: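 NU5455 was profiled across the SelectScreen Broad panel of kinase activity and binding assays. Z'LYTE reactions such as CSF1R ran at apparent Km ATP, while the Adapta CAMK1 assay used ATP listed as 10. Values are given as percent.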

T1 sequence (O94921 whole entry): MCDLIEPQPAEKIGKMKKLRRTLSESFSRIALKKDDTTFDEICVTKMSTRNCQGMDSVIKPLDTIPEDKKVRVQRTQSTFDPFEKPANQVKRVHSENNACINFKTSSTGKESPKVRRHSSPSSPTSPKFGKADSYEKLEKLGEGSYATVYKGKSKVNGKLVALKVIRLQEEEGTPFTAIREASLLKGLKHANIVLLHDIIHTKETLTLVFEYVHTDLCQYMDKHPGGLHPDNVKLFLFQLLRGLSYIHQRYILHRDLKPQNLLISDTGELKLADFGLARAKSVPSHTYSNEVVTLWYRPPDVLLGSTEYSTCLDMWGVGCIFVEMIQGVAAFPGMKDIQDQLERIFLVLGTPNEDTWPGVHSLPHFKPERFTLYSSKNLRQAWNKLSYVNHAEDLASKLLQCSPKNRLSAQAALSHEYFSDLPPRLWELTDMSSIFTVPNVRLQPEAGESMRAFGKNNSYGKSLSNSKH
T1 sequence (Q8ND76 whole entry partner): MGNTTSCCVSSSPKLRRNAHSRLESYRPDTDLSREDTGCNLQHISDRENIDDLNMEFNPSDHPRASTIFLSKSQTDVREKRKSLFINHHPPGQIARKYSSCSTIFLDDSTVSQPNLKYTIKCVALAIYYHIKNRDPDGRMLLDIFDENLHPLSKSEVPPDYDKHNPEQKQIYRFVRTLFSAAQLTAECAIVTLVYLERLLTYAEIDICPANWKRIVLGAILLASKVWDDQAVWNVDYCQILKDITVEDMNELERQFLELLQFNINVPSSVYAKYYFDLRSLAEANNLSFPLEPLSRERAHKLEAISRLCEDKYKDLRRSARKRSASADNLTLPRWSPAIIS

CN(C(=O)CN1CCOCC1)c1ccc2sc3c(-c4cccc5c(=O)cc(N6CC7CCC(C6)O7)oc45)cccc3c2c1 [NU5455]
% displacement: 5.1%

Reference: PMC6934184, “Selective DNA-PKcs inhibition extends the therapeutic index of localized radiotherapy and chemotherapy” (The Journal of Clinical Investigation, 2019)
